Test results reported in US20170137417A1 (priority 2014, published 2017).

Conditions: Log P, [a] LC-UV, acidic range
Method: Measurement of Log P values was performed according to EEC directive 79/831 Annex V.A8 by HPLC (High Performance Liquid Chromatography) on reversed phase columns with the following methods:
[a] Log P value is determined by measurement of LC-UV, in an acidic range, with 0.1% formic acid in water and acetonitrile as eluent (linear gradient from 10% acetonitrile to 95% acetonitrile).
Calibration was done with straight-chain alkan2-ones (with 3 to 16 carbon atoms) with known Log P values (measurement of Log P values using retention times with linear interpolation between successive alkanones).

`C#CCOc1ccc(F)c(F)c1C1CC(c2csc(C3CCN(C(=O)Nc4cc(C)ccc4C)CC3)n2)=NO1` (stereo not shown) [Example I-3] gave a chromatographic logP of 3.45.
